The values below come from publication PMC8005474 (Journal of neuro-oncology, 2021).

This test has as its target YAP1 (Yes-associated protein, YAP) (Homo sapiens, UniProt P46937). Put plainly: SPR with immobilized full-length YAP. Type of test: binding.

YAP1 (Yes-associated protein, YAP), sequence (P46937 whole entry): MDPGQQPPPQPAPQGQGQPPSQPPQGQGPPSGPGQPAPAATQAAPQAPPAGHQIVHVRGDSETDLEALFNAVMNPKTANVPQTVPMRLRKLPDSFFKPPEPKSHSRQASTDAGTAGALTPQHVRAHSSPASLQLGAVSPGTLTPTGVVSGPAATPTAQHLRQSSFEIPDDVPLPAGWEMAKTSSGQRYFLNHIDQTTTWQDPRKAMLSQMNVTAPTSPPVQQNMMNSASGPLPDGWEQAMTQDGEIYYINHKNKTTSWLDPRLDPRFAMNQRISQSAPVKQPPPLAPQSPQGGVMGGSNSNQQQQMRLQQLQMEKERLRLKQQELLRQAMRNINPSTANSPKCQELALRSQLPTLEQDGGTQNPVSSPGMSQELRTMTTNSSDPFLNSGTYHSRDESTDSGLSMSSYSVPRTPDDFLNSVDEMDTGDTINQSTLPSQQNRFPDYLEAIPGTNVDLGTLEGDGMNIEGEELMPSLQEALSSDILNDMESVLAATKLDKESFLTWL

One may read the Kd as a measure of binding affinity in units of concentration. A low value points to higher affinity. In turn, `COc1ccc(-c2cc(-c3ccccc3)nc3c2CC(=O)Nc2ccccc2-3)cc1OC` [NSC682769] registered a Kd of 738 nM.
